We go through 14 compounds from patent US9505710B2 (priority 2015, dated 2016).

BoNT/A LC1-429, sequence (P0DPI1 1-429, added parts left off): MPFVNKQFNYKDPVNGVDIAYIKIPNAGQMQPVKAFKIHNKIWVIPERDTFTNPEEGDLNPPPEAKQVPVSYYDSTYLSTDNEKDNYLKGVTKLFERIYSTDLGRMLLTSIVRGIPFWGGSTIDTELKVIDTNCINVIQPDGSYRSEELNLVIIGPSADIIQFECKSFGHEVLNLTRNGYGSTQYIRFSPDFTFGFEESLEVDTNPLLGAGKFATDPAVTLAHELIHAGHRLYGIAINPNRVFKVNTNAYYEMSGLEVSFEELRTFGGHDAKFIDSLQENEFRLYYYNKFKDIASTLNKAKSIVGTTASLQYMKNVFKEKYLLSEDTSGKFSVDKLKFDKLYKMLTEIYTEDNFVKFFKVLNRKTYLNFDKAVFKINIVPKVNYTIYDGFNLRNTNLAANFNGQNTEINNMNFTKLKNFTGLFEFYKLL

The experiment concerns the target BoNT/A LC1-429 (Clostridium botulinum, UniProt P0DPI1). The experiment is described as follows: biochemical. As to conditions: BoNT/A Ki (nM).
Take `CCO[C@H](CC(=O)NO)[C@H](Cc1ccc(Cl)cc1)c1ccc(C(=O)N(C)CCO)cc1` [Example 4-4, 4-((2R,3R)-1-(4-chlorophenyl)-3-ethoxy-5-(hydroxyamino)-5-oxopentan-2-yl)-N-(2-hydroxyethyl)-N-methylbenzamide]: the inhibitory constant (Ki) (as a rule, a measure of affinity in units of concentration, obtained from inhibition or displacement) turned out to be 9.8 ± 3.7 nM. As for `CCO[C@H](CC(=O)NO)[C@H](Cc1ccc(Cl)cc1)c1ccc(C(=O)N2CCOCC2)cc1` [Example 4-5, (3R,4R)-5-(4-chlorophenyl)-3-ethoxy-N-hydroxy-4-(4-(morpholine-4-carbonyl)phenyl)pentanamide], the figure is 5.8 ± 1.1 nM. In the case of `CO[C@H](CC(=O)NO)[C@H](Cc1ccc(Cl)cc1)c1ccc(C(=O)N2CCOCC2)cc1` [Example 4-6, (3R,4R)-5-(4-chlorophenyl)-N-hydroxy-3-methoxy-4-(4-(morpholine-4-carbonyl)phenyl)pentanamide], the affinity corresponds to a Ki of 11.4 nM. This Ki is about 2-fold higher than that of the compound before. With `CO[C@H](CC(=O)NO)[C@H](Cc1ccc(Cl)cc1)c1ccc(C(=O)N2CCCCC2)cc1` [Example 4-7, (3R,4R)-5-(4-chlorophenyl)-N-hydroxy-3-methoxy-4-(4-(piperidine-1-carbonyl)phenyl)pentanamide] the figure was 5.5 nM. As for `CCO[C@H](CC(=O)NO)[C@H](Cc1ccc(Cl)cc1)c1ccc(C(=O)N2CCN(C(=O)OC(C)(C)C)CC2)cc1` [Example 4-8, tert-butyl 4-(4-((2R,3R)-1-(4-chlorophenyl)-3-ethoxy-5-(hydroxyamino)-5-oxopentan-2-yl)benzoyl)piperazine-1-carboxylate], the figure is 22 nM; as for `CCO[C@H](CC(=O)NO)[C@H](Cc1ccc(Cl)cc1)c1ccc(C(=O)N2CCNCC2)cc1` [Example 4-9, (3R,4R)-5-(4-chlorophenyl)-3-ethoxy-N-hydroxy-4-(4-(piperazine-1-carbonyl)phenyl)pentanamide], 9.2 ± 6.1 nM. On to `CCO[C@H](CC(=O)NO)[C@H](Cc1ccc(Cl)cc1)c1ccc(C(=O)N(CCO)CCO)cc1` [Example 4-10, 4-((2R,3R)-1-(4-chlorophenyl)-3-ethoxy-5-(hydroxyamino)-5-oxopentan-2-yl)-N,N-bis(2-hydroxyethyl)benzamide], for which affinity was put at a Ki of 16.7 nM. As for `CO[C@H](CC(=O)NO)[C@H](Cc1ccc(Cl)cc1)c1ccc(Cl)c(Br)c1` [Example 5-1, (3R,4R)-4-(3-bromo-4-chlorophenyl)-5-(4-chlorophenyl)-N-hydroxy-3-methoxypentanamide], the figure is 5.2 nM; as for `CO[C@H](CC(=O)NO)[C@H](Cc1ccc(Cl)cc1)c1ccc(Cl)c(CN2CCCCC2)c1` [Example 5-2, (3R,4R)-4-(4-chloro-3-(piperidin-1-ylmethyl)phenyl)-5-(4-chlorophenyl)-N-hydroxy-3-methoxypentanamide], 3.7 nM; as for `CO[C@H](CC(=O)NO)[C@H](Cc1ccc(Cl)cc1)c1ccc(Cl)c(C(=O)N2CCCCC2)c1` [Example 5-3, (3R,4R)-4-(4-chloro-3-(piperidine-1-carbonyl)phenyl)-5-(4-chlorophenyl)-N-hydroxy-3-methoxypentanamide], 13.1 nM.

Consider `CO[C@H](CC(=O)NO)[C@H](Cc1ccc(Cl)cc1)c1ccc(F)cc1F` [Example 5-4, (3R,4R)-5-(4-chlorophenyl)-4-(2,4-difluorophenyl)-N-hydroxy-3-methoxypentanamide], for which the Ki was found to be 3.95 nM. Regarding `CO[C@H](CC(=O)NO)[C@H](Cc1ccc(Cl)cc1)c1cc(F)c(F)c(F)c1` [Example 5-5, (3R,4R)-5-(4-chlorophenyl)-N-hydroxy-3-methoxy-4-(3,4,5-trifluorophenyl)pentanamide], the affinity corresponds to a Ki of 5.36 nM.

Compound `CO[C@H](CC(=O)NO)[C@H](Cc1ccc(Cl)cc1)c1cc(F)c(F)c(F)c1F` [Example 5-6, (3R,4R)-5-(4-chlorophenyl)-N-hydroxy-3-methoxy-4-(2,3,4,5-tetrafluorophenyl)pentanamide] yielded an inhibitory constant (Ki) of 4.95 nM. Compound `CCO[C@H](CC(=O)NO)[C@H](Cc1ccc(Cl)cc1)c1ccc(Cl)cc1` [Example 6-1, (3R,4R)-4,5-bis(4-chlorophenyl)-3-ethoxy-N-hydroxypentanamide] gave a Ki of 4.9 nM.
